One compound from ChEMBL document CHEMBL4304811, “Development of a Water-Soluble Indolylmaleimide Derivative IM-93 Showing Dual Inhibition of Ferroptosis and NETosis” (ACS Med Chem Lett, 2019) can be followed below.

Experiment [1] has as its target Bone morphogenetic protein receptor type-1A (Homo sapiens) (UniProt P36894). Nature of the experiment: Binding affinity to wild-type human partial length BMPR1A (Q214 to I532 residues) expressed in bacterial expression system assessed as residual binding level at 10 uM by Kinomescan method relative to control.
The target of experiment [2] is Macrophage-stimulating protein receptor (Homo sapiens) (UniProt Q04912). Nature of the experiment: Binding affinity to wild-type human partial length MST1R (I1057 to L1363 residues) expressed in bacterial expression system assessed as residual binding level at 10 uM by Kinomescan method relative to control.
Experiment [3] deals with cAMP-dependent protein kinase catalytic subunit PRKX (Homo sapiens) (UniProt P51817). Nature of the experiment: Binding affinity to wild-type human partial length PRKX (M1 to F358 residues) expressed in bacterial expression system assessed as residual binding level at 10 uM by Kinomescan method relative to control.
Experiment [4] addresses Calcium/calmodulin-dependent protein kinase type 1G (Homo sapiens) (UniProt Q96NX5). As to the kind of experiment: Binding affinity to wild-type human partial length CAMK1G (M1 to A342 residues) expressed in bacterial expression system assessed as residual binding level at 10 uM by Kinomescan method relative to control.
Experiment [5] concerns the target Mitogen-activated protein kinase 3 (Homo sapiens) (UniProt P27361). Nature of the experiment: Binding affinity to wild-type human full length ERK1 (M1 to P379 residues) expressed in bacterial expression system assessed as residual binding level at 10 uM by Kinomescan method relative to control.
For experiment [6], the target named is Homeodomain-interacting protein kinase 4 (Homo sapiens) (UniProt Q8NE63). As to the kind of experiment: Binding affinity to wild-type human partial length HIPK4 (M1 to V384 residues) expressed in bacterial expression system assessed as residual binding level at 10 uM by Kinomescan method relative to control.
Experiment [7] deals with Serine/threonine-protein kinase N2 (Homo sapiens) (UniProt Q16513). As to the kind of experiment: Binding affinity to wild-type human partial length PKN2 (E634 to C984 residues) expressed in bacterial expression system assessed as residual binding level at 10 uM by Kinomescan method relative to control.
Experiment [8] addresses Cyclin-dependent kinase 16 (Homo sapiens) (UniProt Q00536). Nature of the experiment: Binding affinity to wild-type human partial length PCTK1 (G160 to A474 residues) expressed in mammalian expression system assessed as residual binding level at 10 uM by Kinomescan method relative to control.
Experiment [9] concerns the target Calcium/calmodulin-dependent protein kinase type II subunit gamma (Homo sapiens) (UniProt Q13555). As to the kind of experiment: Binding affinity to wild-type human partial length CAMK2G (R9 to A303 residues) expressed in bacterial expression system assessed as residual binding level at 10 uM by Kinomescan method relative to control.

The structures appear in SMILES notation.

Chain of Bone morphogenetic protein receptor type-1A (Homo sapiens) (P36894 whole entry, the tested form may be a part): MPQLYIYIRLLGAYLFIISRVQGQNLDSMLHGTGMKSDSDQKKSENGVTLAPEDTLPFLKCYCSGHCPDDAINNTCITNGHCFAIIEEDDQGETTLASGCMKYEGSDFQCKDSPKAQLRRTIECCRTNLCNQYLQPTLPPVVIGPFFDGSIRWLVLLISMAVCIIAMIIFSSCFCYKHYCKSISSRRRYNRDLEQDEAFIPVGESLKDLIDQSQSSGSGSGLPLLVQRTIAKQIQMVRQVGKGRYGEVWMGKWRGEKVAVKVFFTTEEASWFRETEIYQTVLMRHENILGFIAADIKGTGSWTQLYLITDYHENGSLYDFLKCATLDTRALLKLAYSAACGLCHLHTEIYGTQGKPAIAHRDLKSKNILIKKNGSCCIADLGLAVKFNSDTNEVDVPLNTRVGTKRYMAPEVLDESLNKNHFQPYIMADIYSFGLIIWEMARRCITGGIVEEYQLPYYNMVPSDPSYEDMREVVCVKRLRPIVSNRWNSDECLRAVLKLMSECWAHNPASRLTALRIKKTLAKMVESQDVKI
Chain of Serine/threonine-protein kinase N2 (Homo sapiens) (Q16513 whole entry, looked up, the tested form may be a part): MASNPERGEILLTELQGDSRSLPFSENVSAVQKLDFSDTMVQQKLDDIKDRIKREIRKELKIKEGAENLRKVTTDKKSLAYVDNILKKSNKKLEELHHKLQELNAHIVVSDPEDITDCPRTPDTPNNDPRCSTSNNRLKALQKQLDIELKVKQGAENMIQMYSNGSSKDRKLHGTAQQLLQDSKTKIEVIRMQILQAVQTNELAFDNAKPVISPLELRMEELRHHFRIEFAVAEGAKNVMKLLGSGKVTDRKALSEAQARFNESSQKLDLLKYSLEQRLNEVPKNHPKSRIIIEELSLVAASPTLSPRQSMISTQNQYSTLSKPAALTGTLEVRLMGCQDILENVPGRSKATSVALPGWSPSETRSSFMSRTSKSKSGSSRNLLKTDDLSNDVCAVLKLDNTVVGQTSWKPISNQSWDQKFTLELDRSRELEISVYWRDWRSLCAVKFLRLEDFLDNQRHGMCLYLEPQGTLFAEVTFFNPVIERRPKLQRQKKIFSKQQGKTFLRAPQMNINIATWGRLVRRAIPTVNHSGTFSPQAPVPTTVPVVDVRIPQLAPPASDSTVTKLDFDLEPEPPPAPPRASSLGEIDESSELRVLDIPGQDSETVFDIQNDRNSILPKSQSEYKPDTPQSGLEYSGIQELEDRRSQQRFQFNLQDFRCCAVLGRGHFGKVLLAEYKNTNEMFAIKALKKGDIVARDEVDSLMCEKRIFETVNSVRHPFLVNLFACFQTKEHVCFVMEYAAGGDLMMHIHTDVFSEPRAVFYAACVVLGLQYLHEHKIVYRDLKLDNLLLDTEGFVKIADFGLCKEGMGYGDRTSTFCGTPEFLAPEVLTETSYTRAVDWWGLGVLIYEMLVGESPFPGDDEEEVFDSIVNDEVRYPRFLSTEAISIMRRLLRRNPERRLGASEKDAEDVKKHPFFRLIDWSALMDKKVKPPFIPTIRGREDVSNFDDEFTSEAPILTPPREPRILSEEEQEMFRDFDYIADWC
Chain of Calcium/calmodulin-dependent protein kinase type II subunit gamma (Homo sapiens) (Q13555 whole entry, the tested form may be a part): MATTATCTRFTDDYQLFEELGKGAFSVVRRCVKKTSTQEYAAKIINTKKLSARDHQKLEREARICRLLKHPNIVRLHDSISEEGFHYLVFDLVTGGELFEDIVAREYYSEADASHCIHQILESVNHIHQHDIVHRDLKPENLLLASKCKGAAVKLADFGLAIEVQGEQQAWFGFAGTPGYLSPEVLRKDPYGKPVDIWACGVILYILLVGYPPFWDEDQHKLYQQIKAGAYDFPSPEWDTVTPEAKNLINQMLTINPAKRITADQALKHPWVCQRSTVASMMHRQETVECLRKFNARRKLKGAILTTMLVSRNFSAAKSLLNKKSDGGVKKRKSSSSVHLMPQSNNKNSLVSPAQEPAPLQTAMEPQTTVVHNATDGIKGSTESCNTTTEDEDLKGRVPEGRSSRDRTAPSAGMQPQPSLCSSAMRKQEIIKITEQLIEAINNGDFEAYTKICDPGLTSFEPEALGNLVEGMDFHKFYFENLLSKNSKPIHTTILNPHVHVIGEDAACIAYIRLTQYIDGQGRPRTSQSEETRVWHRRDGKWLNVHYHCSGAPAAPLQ
Chain of cAMP-dependent protein kinase catalytic subunit PRKX (Homo sapiens) (P51817 whole entry, the tested form may be a part): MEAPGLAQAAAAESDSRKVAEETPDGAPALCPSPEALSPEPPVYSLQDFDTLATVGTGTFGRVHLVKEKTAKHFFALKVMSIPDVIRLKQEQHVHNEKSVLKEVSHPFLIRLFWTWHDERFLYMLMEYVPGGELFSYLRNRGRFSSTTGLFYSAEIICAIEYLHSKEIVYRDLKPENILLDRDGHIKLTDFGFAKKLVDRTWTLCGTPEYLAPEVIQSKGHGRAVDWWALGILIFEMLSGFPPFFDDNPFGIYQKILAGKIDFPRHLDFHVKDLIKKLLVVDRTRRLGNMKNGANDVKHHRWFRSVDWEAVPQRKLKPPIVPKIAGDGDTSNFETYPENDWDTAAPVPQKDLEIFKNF
Chain of Macrophage-stimulating protein receptor (Homo sapiens) (Q04912 25-304 limits assumed): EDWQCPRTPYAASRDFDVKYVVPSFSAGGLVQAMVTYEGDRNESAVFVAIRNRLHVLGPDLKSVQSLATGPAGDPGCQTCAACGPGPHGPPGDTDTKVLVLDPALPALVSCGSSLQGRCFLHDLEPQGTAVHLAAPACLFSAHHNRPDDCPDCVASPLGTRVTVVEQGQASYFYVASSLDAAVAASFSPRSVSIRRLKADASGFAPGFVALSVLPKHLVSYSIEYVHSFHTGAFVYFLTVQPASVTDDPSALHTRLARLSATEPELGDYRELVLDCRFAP
Chain of Macrophage-stimulating protein receptor (Homo sapiens) (Q04912 310-1400 limits assumed): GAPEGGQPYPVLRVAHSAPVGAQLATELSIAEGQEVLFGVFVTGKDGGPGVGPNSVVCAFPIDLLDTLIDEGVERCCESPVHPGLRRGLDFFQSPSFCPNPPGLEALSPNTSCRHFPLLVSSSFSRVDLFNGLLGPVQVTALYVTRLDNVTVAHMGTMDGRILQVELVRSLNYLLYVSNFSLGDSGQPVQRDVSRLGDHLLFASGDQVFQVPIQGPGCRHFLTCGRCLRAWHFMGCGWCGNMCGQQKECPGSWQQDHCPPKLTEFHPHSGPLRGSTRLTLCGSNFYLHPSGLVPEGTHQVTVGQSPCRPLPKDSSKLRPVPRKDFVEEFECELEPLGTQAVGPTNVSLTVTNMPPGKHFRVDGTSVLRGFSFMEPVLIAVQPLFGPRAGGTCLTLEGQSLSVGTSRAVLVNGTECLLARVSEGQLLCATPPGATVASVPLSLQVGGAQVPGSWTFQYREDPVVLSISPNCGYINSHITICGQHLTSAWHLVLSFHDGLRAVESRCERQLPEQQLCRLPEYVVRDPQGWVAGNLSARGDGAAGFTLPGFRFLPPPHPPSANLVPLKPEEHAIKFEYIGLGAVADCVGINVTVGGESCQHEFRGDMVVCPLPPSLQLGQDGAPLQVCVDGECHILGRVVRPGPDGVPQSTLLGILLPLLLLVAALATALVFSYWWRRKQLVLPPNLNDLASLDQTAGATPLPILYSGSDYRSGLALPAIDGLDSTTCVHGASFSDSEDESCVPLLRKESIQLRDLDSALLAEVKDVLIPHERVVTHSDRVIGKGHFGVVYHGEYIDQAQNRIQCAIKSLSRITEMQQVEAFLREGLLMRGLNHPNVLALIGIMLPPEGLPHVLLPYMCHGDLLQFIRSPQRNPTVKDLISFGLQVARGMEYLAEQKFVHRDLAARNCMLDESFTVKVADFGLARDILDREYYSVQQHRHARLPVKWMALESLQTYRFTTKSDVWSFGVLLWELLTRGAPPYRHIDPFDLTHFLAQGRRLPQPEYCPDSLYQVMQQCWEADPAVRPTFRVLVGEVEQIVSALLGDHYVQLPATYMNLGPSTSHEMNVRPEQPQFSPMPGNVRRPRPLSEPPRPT
Chain of Calcium/calmodulin-dependent protein kinase type 1G (Homo sapiens) (Q96NX5 whole entry, the tested form may be a part): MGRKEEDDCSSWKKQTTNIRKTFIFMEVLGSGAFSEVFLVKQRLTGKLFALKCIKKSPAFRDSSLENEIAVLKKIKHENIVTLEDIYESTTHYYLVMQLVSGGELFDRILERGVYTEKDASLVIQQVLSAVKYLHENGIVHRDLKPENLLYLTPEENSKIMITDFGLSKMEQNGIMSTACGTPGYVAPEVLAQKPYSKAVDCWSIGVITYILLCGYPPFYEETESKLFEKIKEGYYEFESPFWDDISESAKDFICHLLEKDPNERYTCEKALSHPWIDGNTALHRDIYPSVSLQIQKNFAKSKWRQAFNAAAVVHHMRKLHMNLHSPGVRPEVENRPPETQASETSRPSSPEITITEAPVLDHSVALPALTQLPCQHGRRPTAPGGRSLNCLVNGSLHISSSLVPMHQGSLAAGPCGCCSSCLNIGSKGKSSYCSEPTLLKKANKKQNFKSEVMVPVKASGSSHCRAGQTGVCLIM
Chain of Homeodomain-interacting protein kinase 4 (Homo sapiens) (Q8NE63 whole entry, the tested form may be a part): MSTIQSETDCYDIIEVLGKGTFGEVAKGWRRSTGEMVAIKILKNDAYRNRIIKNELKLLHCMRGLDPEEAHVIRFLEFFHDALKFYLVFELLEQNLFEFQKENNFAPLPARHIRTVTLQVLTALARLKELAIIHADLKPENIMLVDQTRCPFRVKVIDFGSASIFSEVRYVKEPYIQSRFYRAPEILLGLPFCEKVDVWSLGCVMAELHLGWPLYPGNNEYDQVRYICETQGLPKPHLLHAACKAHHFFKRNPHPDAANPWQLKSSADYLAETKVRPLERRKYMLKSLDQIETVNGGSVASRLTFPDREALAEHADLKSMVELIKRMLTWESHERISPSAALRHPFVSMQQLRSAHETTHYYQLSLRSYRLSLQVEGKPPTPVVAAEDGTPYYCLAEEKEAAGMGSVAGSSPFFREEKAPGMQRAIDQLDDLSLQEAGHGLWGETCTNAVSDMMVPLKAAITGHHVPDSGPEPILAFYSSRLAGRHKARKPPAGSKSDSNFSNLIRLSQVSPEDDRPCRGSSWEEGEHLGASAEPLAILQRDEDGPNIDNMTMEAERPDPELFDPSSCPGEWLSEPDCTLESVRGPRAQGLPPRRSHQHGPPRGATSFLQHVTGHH

In the case of `CC(C)N1C(=O)C(NCCCN(C)C)=C(c2cn(C)c3ccccc23)C1=O.Cl`, the Activity in experiment [1] stood at 100%; in [2], 100%; in [3], 88%; in experiment [4], 95%; in experiment [5], 87%; in [6], 84%. Also, the Activity in experiment [7] is 95%; in experiment [8] it was 92%; in experiment [9], 83%.
